Reference: patent US20160297763A1, “Heteroaryl hydroxamic acid derivatives and their use in the treatment, amelioration or prevention of a viral disease” (priority 2011, published 2016)

What follows are compounds tested on influenza A virus A/Aichi/2/68 (H3N2) (assay: Cytopathic effect (CPE) assay H3N2). Conditions: Influenza A virus, H3N2, activity conc 50 (μM per method); read-out: CPE H3N2 reduction (%).
Format: cell-based, influenza A virus (H3N2) on MDCK cells
Protocol: A possible measure of the […] antiviral activity of the compounds having the formula I or II is the CPE assay disclosed herein. […] In this connection, the reduction in the virus-mediated cytopathic effect (CPE) upon treatment with the compounds was calculated as follows: The cell viability of infected-treated and uninfected-treated cells was determined using an ATP-based cell viability assay (Promega). The response in relative luminescent units (RLU) of infected-untreated samples was subtracted from the response (RLU) of the infected-treated samples and then normalized to the viability of the corresponding uninfected sample resulting in % CPE reduction.
The influenza A virus (IAV) was obtained from American Tissue Culture Collection (A/Aichi/2/68 (H3N2); VR-547). Virus stocks were prepared by propagation of virus on Mardin-Darby canine kidney (MDCK; ATCC CCL-34) cells and infectious titres of virus stocks were determined by the 50% tissue culture infective dose (TCID50) analysis as described in Reed, L. J., and H. Muench. 1938, Am. J. Hyg. 27:493-497.
MDCK cells were seeded in 96-well plates at 2×10^4 cells/well using DMEM/Ham's F-12 (1:1) medium containing 10% foetal bovine serum (FBS), 2 mM L-glutamine and 1 antibiotics (all from PAA). Until infection the cells were incubated for 5 hrs at 37° C., 5.0 CO2 to form a ˜80% confluent monolayer on the bottom of the well. Each test compound was dissolved in DMSO and generally tested at 25 μM and 250 μM. In those cases where the compounds were not soluble at that concentration they were tested at the highest soluble concentration. The compounds were diluted in infection medium (DMEM/Ham's F-12 (1:1) containing 5 μg/ml trypsin, and 1% antibiotics) for a final plate well DMSO concentration of 1%. The virus stock was diluted in infection medium (DMEM/Ham's F-12 (1:1) containing 5 μg/ml Trypsin, 1% DMSO, and 1% antibiotics) to a theoretical multiplicity of infection (MOI) of 0.05.
After removal of the culture medium and one washing step with PBS, virus and compound were added together to the cells. In the wells used for cytotoxicity determination (i.e. in the absence of viral infection), no virus suspension was added. Instead, infection medium was added. Each treatment was conducted in two replicates. After incubation at 37° C., 5% CO2 for 48 hrs, each well was observed microscopically for apparent cytotoxicity, precipitate formation, or other notable abnormalities. Then, cell viability was determined using CellTiter-Glo luminescent cell viability assay (Promega). The supernatant was removed carefully and 65 μl of the reconstituted reagent were added to each well and incubated with gentle shaking for 15 min at room temperature. Then, 60 μl of the solution was transferred to an opaque plate and luminescence (RLU) was measured using Synergy HT plate reader (Biotek).
Relative cell viability values of uninfected-treated versus uninfected-untreated cells were used to evaluate cytotoxicity of the compounds. Substances with a relative viability below 80% at the tested concentration were regarded as cytotoxic and retested at lower concentrations.
Reduction in the virus-mediated cytopathic effect (CPE) upon treatment with the compounds was calculated as follows: The response (RLU) of infected-untreated samples was subtracted from the response (RLU) of the infected-treated samples and then normalized to the viability of the corresponding uninfected sample resulting in % CPE reduction.

Which inhibition at 50 µM does the source give for `CN(C)C1CCN(c2ccnc(C(=O)N(O)Cc3ccccc3)c2)CC1` here?
Its inhibition at 50 µM is 12.3%.

For `CN1CCN(c2ccnc(C(=O)N(O)Cc3ccccc3)c2)CC1`, which inhibition at 50 µM is on record?
The inhibition at 50 µM was 2.4%.

With `O=C(c1cc(C2=CCNCC2)ccn1)N(O)Cc1ccccc1` as the compound, how does the inhibition at 50 µM read?
The inhibition at 50 µM was 0.4%.

With `O=C(c1cc(N2CCC(N3CCCCC3)CC2)ccn1)N(O)Cc1ccccc1` as the compound, how does the inhibition at 50 µM read?
Its inhibition at 50 µM is 18.8%.

Which inhibition at 50 µM does the source give for `NC1CCN(c2ccnc(C(=O)N(O)Cc3ccccc3)c2)CC1` here?
The inhibition at 50 µM was 3.2%.

`CN(C)C(=O)c1cccc(-c2ccnc(C(=O)N(O)Cc3ccccc3)c2)c1` was tested. Which inhibition at 50 µM did it give?
The inhibition at 50 µM was 5.3%.

Which inhibition at 50 µM does the source give for `CC(C)(C)OC(=O)N1CCN(c2ccnc(C(=O)N(O)Cc3ccccc3)c2)CC1` here?
Its inhibition at 50 µM is 34%.

How did the inhibition at 50 µM turn out when `CC1(C)C=C(c2ccnc(C(=O)N(O)Cc3ccccc3)c2)CC(C)(C)N1` was run?
The inhibition at 50 µM was 2.8%.

Which inhibition at 50 µM does the source give for `O=C(c1cc(C2CCNCC2)ccn1)N(O)Cc1ccccc1` here?
The inhibition at 50 µM was -1.4%.

Which inhibition at 50 µM does the source give for `O=C(NO)c1cc(NS(=O)(=O)Cc2ccc(F)cc2)ccn1` here?
The inhibition at 50 µM was -1.4%.

For `CN(O)C(=O)c1cc(N2CCCCC2)ccn1`, which inhibition at 50 µM is on record?
Its inhibition at 50 µM is -0.9%.

How did the inhibition at 50 µM turn out when `O=C(c1cc(N2CCNCC2)ccn1)N(O)Cc1ccccc1` was run?
Its inhibition at 50 µM is -4.5%.

With `O=C(NO)c1cc(NS(=O)(=O)Cc2cccc(F)c2)ccn1` as the compound, how does the inhibition at 50 µM read?
Its inhibition at 50 µM is -2.4%.

`O=C(c1cc(C2=CCC3(CC2)OCCO3)ccn1)N(O)Cc1ccccc1` was tested. Which inhibition at 50 µM did it give?
Its inhibition at 50 µM is 5.4%.

How did the inhibition at 50 µM turn out when `O=C(c1cc(N2CCC(F)(F)CC2)ccn1)N(O)Cc1ccccc1` was run?
The inhibition at 50 µM was -3.2%.

With `O=C(c1cc(NS(=O)(=O)Cc2ccc(F)cc2)ccn1)N(O)Cc1ccccc1` as the compound, how does the inhibition at 50 µM read?
Its inhibition at 50 µM is -1.1%.

How did the inhibition at 50 µM turn out when `O=C(NO)c1cc(NS(=O)(=O)Cc2ccccc2)ccn1` was run?
The inhibition at 50 µM was 5.1%.

With `O=C(c1cc(C2=CCCNC2)ccn1)N(O)Cc1ccccc1` as the compound, how does the inhibition at 50 µM read?
The inhibition at 50 µM was 9.5%.

How did the inhibition at 50 µM turn out when `CN1CCN(c2ccnc(C(=O)N(C)O)c2)CC1` was run?
The inhibition at 50 µM was 2.6%.

How did the inhibition at 50 µM turn out when `CN(O)C(=O)c1cc(N2CCOCC2)ccn1` was run?
The inhibition at 50 µM was 5.7%.

With `O=C(c1cc(NS(=O)(=O)Cc2cccc(F)c2)ccn1)N(O)Cc1ccccc1` as the compound, how does the inhibition at 50 µM read?
Its inhibition at 50 µM is 9.6%.

`O=C(NO)c1cc(NS(=O)(=O)Cc2ccccc2F)ccn1` was tested. Which inhibition at 50 µM did it give?
The inhibition at 50 µM was -0.5%.

For `O=C(c1cc(C2CCCNC2)ccn1)N(O)Cc1ccccc1` (stereo not shown), which inhibition at 50 µM is on record?
Its inhibition at 50 µM is 6.1%.

For `O=C(c1cc(N2CCC(F)CC2)ccn1)N(O)Cc1ccccc1`, which inhibition at 50 µM is on record?
Its inhibition at 50 µM is 34%.

How did the inhibition at 50 µM turn out when `O=C(c1cc(NS(=O)(=O)Cc2cccc(Cl)c2)ccn1)N(O)Cc1ccccc1` was run?
Its inhibition at 50 µM is 9.5%.

`O=C(c1cc(NS(=O)(=O)Cc2cccc(C(F)(F)F)c2)ccn1)N(O)Cc1ccccc1` was tested. Which inhibition at 50 µM did it give?
The inhibition at 50 µM was 22.4%.

How did the inhibition at 50 µM turn out when `O=C(NO)c1cc(NS(=O)(=O)Cc2cccc(C(F)(F)F)c2)ccn1` was run?
Its inhibition at 50 µM is -5.6%.

With `O=C(NO)c1cc(NS(=O)(=O)Cc2ccccc2Cl)ccn1` as the compound, how does the inhibition at 50 µM read?
Its inhibition at 50 µM is 1.5%.

`O=C(NO)c1ccccn1` was tested. Which inhibition at 50 µM did it give?
The inhibition at 50 µM was 3.15%.

With `Nc1ccccc1NC(=O)c1ccc(C(=O)NO)nc1` as the compound, how does the inhibition at 50 µM read?
The inhibition at 50 µM was -5.53%.

How did the inhibition at 50 µM turn out when `O=C(NO)c1cc(NS(=O)(=O)Cc2ccc(Cl)cc2)ccn1` was run?
The inhibition at 50 µM was -3.98%.

Which inhibition at 50 µM does the source give for `O=C(NO)c1cc(NS(=O)(=O)Cc2ccc(Cl)c(Cl)c2)ccn1` here?
Its inhibition at 50 µM is 53.4%.

For `O=C(NO)c1cc(NS(=O)(=O)Cc2cccc3cccnc23)ccn1`, which inhibition at 50 µM is on record?
Its inhibition at 50 µM is 24.4%.

How did the inhibition at 50 µM turn out when `O=C(NOC(=O)c1cc(N2CCCCC2)ccn1)c1cc(N2CCCCC2)ccn1` [drawing 160] was run?
Its inhibition at 50 µM is 29%.

`Cc1cccc(C(=O)NOCc2ccccc2)n1` [drawing 170] was tested. Which inhibition at 50 µM did it give?
The inhibition at 50 µM was -2.7%.

Same assay, conditions: Influenza A virus, H3N2, read-out: CPE H3N2 IC50 [μM]

Which IC50 does the source give for `Cc1cc(-c2sc3nc(N)[nH]c(=O)c3c2C)ccc1Cl` [SAV-7620] here?
The IC50 was 29 µM.

Same assay, conditions: Influenza A virus, H3N2, read-out: CPE H3N2 reduction (%), activity conc 5 (μM per method)

How did the inhibition at 5 µM turn out when `Cc1c(-c2ccc(Cl)c(C(F)(F)F)c2)sc2nc(N)[nH]c(=O)c12` [SAV-7623] was run?
The inhibition at 5 µM was 1.9%.

`Cc1c(-c2ccccc2)sc2nc(Nc3ccccc3)[nH]c(=O)c12` [SAV-7638] was tested. Which inhibition at 5 µM did it give?
The inhibition at 5 µM was 8.7%.

Same assay, conditions: Influenza A virus, H3N2, read-out: CPE H3N2 reduction (%), activity conc 50 (μM per method)

`CCONC(=O)c1cc(N2CCOCC2)ccn1` was tested. Which inhibition at 50 µM did it give?
Its inhibition at 50 µM is 1.3%.

With `O=C(NO)c1cc(NS(=O)(=O)Cc2ccc(Cl)cc2Cl)ccn1` as the compound, how does the inhibition at 50 µM read?
Its inhibition at 50 µM is 60.1%.

`Cc1cc(-c2sc3nc(N)[nH]c(=O)c3c2C)ccc1Cl` [SAV-7620] was tested. Which inhibition at 50 µM did it give?
The inhibition at 50 µM was 57.8%.

Same assay, conditions: Influenza A virus, H3N2; read-out: CPE H3N2 IC50

Which IC50 does the source give for `O=C(NO)c1cc(NS(=O)(=O)Cc2cccc3cccnc23)ccn1` here?
The IC50 was 78 µM.

`O=C(NOC(=O)c1cc(N2CCCCC2)ccn1)c1cc(N2CCCCC2)ccn1` [drawing 160] was tested. Which IC50 did it give?
Its IC50 is 37 µM.
